≈ marks a conversion by molar mass, not a printed value. Where two headings read alike, the source gives them in different places.
What was measured:
[1] = system: Staphylococcus aureus MB6266 (MRSA COL); assay: Nargenicin antibacterial assay (MIC), S. aureus; assay type: cell-based; conditions: Staphylococcus aureus, MRSA, read-out: S. aureus COL (MIC), MHII broth + 50% human serum; * = some reduction of growth versus control at […]
[2] = molecular target: T1, S. aureus DnaE (DNA polymerase III α-subunit homolog from Staphylococcus aureus) (Staphylococcus aureus, UniProt Q5HF71); assay: biochemical; assay type: biochemical
T1 construct: SaDnaE (S. aureus DnaE residues 1-1065); 6xHis (N); made in house; host or cells: E. coli BL21-AI
T1 sequence (Q5HF71 1-1065): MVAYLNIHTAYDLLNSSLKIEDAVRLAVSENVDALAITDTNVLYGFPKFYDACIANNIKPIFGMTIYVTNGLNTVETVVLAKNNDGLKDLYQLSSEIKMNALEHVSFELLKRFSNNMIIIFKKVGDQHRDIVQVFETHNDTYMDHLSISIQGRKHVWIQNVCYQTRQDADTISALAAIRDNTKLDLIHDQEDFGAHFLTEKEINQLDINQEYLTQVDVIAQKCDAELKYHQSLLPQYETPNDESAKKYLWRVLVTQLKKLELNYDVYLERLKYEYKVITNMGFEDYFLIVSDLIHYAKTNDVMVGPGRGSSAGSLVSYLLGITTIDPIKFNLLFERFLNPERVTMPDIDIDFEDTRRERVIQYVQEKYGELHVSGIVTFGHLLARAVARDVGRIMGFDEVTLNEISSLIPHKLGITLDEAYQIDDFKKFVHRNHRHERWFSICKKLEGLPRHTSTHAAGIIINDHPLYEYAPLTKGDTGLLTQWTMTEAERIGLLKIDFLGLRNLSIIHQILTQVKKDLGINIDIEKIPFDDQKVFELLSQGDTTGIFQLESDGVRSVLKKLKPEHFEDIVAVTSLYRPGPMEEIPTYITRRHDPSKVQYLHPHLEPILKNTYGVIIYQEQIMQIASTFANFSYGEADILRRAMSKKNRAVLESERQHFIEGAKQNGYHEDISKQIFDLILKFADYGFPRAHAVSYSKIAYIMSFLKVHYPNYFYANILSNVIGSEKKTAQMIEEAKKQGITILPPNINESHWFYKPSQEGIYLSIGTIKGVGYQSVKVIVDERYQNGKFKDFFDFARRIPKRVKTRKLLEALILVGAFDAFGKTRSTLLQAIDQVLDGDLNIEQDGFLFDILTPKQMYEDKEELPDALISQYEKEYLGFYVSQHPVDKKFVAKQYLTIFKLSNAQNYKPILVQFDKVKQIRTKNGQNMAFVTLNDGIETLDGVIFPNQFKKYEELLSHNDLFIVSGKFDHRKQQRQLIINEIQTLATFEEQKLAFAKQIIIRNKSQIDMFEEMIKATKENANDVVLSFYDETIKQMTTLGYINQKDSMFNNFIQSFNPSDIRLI
How it was run: (§1)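 His-tagged E. coli DnaE (residues 1-1160, 0.8 μg/ml) or S. aureus DnaE (residues 1-1065, 0.05 μg/ml) incubated 30 min at 30° C. with activated calf thymus DNA, 0.025 mM dATP/dGTP/dCTP and 0.011 mM 3H-dTTP in Tris pH 7.5/Mg acetate. TCA-precipitated labelled DNA counted.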

[3] = system: Streptococcus pneumoniae MB6357 (CL 2883); assay: Nargenicin antibacterial assay (MIC), S. pneumoniae; assay type: cell-based; conditions: Streptococcus pneumoniae, read-out: S. pneumoniae MB2883 (MIC), Isosensitest broth; * = some reduction of growth versus control at […]
[4] = molecular target: T2, E. coli DnaE (DNA polymerase III α-subunit from Escherichia coli) (Escherichia coli, UniProt P10443); assay: In vitro DnaE single enzyme assay (E. coli); assay type: biochemical
T2 construct: EcDnaE (E. coli DnaE residues 1-1160); 6xHis (N); made in house; host or cells: E. coli BL21(DE3)
T2 sequence (P10443 whole entry, the tested form may be a part): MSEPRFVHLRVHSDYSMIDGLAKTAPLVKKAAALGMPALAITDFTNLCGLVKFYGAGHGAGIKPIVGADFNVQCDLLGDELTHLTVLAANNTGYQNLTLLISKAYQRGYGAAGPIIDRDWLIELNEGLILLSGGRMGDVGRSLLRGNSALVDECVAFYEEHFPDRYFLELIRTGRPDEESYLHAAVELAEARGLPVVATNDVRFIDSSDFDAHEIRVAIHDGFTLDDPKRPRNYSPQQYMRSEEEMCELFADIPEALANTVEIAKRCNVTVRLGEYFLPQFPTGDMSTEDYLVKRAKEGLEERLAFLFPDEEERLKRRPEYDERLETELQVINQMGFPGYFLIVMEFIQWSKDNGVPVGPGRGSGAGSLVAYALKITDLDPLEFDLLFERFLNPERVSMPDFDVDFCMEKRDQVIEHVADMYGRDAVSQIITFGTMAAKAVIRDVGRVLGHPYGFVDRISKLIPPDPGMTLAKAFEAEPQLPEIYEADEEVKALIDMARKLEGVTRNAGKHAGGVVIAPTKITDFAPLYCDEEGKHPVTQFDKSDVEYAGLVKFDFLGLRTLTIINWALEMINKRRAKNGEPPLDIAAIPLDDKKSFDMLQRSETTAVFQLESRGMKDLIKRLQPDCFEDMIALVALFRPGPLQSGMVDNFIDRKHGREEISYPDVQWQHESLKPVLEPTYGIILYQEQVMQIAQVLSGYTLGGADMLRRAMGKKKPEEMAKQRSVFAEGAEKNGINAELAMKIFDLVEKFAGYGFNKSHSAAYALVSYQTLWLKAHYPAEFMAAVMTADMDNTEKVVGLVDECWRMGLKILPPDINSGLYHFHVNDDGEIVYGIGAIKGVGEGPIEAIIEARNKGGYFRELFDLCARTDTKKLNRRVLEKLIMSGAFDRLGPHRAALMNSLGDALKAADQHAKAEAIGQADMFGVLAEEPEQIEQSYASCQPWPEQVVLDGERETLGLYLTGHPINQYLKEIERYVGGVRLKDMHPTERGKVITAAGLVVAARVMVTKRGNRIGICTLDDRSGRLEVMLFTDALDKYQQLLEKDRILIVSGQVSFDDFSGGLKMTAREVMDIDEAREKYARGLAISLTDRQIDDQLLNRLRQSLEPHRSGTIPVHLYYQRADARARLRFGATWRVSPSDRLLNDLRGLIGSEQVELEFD
How it was run: as §1

[5] = system: Pseudomonas aeruginosa MB5890 (CB1101, efflux-deleted); assay: microbe, parasite or virus in culture; assay type: cell-based; conditions: Pseudomonas aeruginosa, read-out: P. aeruginosa MB5890 efflux-del (MIC), MHII broth; * = some reduction of growth versus control at […]
[6] = system: Escherichia coli MB5747 (LS 883, tolC); assay: microbe, parasite or virus in culture; assay type: cell-based; conditions: Escherichia coli, read-out: E. coli LS883 tolC (MIC), MHII broth; * = some reduction of growth versus control at […]
[7] = read-out: E. coli DnaE IC50 (converted)

SMILES	MIC [1]	IC50 ([2]; S. aureus DnaE IC50)	MIC [3]	IC50 [4, 7]	MIC [5]	MIC [6]	IC50 ([4]; E. coli DnaE IC50)	IC50 ([2]; read-out: S. aureus DnaE IC50 (converted))
CO[C@H]1C[C@H]2CC(=O)[C@H]3[C@H]4O[C@]2(/C(C)=C/[C@@H](C)[C@@H]([C@@H](C)O)OC1=O)[C@@H]3[C@H](O)[C@@H](C)[C@H]4OC(=O)c1ccc[nH]1 [Example 181]	64 µg/mL	0.0941 µM	> 128 µg/mL	> 188 µM	32 µg/mL (≈ 60.2 µM)	8 µg/mL (≈ 15 µM)	–	–
CO[C@H]1C[C@H]2CC[C@H]3[C@H]4O[C@]2(/C(C)=C/[C@@H](C)[C@@H]([C@@H](C)O)OC1=O)[C@@H]3[C@H](O)[C@@H](C)[C@H]4OC(=O)c1ccc[nH]1 [Example 37, (3R,4S,7S,8aR,10aR,11R,12R,13R,14R,14aS,14bS,E)-14-hydroxy-4-((R)-1-hydroxyethyl)-7-methoxy-1,3,13-trimethyl-6-oxo-3,4,6,7,8,8a,9,10,10a,11,12,13,14,14a-tetradecahydro-11,14b-epoxynaphtho[2,1-e]oxecin-12-yl 1H-pyrrole-2-carboxylate]	> 8 µg/mL	< 0.0966 µM	> 128 µg/mL	–	128 µg/mL (≈ 247 µM)	> 8 µg/mL	> 193 µM	–
CO[C@H]1CC2C=C[C@H]3[C@H]4O[C@]2(/C(C)=C/[C@@H](C)[C@@H]([C@@H](C)OC(=O)C[n+]2ccccc2)OC1=O)[C@@H]3[C@H](O)[C@@H](C)[C@H]4OC(=O)c1ccc[nH]1 (stereo partly drawn) [Example 71]	0.25 µg/mL	< 0.00944 µM	> 128 µg/mL	18.9 µM	8 µg/mL	0.25 µg/mL	–	–
CO[C@H]1C[C@H]2C=C[C@H]3[C@H]4O[C@]2(/C(C)=C/[C@@H](C)[C@@H]([C@@H](C)O)OC1=O)[C@@H]3[C@H](O)[C@@H](C)[C@@H]4N [Example 151, (3R,4S,7S,8aS,10aR,11R,12S,13S,14R,14aS,14bS,E)-12-amino-14-hydroxy-4-((R)-1-hydroxyethyl)-7-methoxy-1,3,13-trimethyl-3,4,8,8a,10a,11,12,13,14,14 a-decahydro-11,14b-epoxynaphtho [2,1-e]oxecin-6(7H)-one]	> 128 µg/mL	4.98 µM	> 128 µg/mL	–	> 128 µg/mL	> 128 µg/mL	> 237 µM	–
CO[C@H]1CC2C=C[C@H]3[C@H]4O[C@]2(/C(C)=C/[C@@H](C)[C@@H]([C@@H](C)O)OC1=O)[C@@H]3[C@H](OC(N)=O)[C@@H](C)[C@H]4OC(=O)c1ccc[nH]1 (stereo partly drawn) [Example 38, (3R,4S,7S,10aR,11R,12R,13R,14R,14aS,14bS,E)-14-(carbamoyloxy)-4-((R)-1-hydroxyethyl)-7-methoxy-1,3,13-trimethyl-6-oxo-3,4,6,7,8,8a,10a,11,12,13,14,14 a-dodecahydro-11,14b-epoxynaphtho[2,1-e]oxecin-12-yl 1H-pyrrole-2-carboxylate]	32 µg/mL	0.0394 µM	128 µg/mL (≈ 229 µM)	~197 µM	> 128 µg/mL	16 µg/mL (≈ 28.6 µM)	–	–
CO[C@H]1C[C@H]2C=C[C@H]3[C@H]4O[C@]2(/C(C)=C/[C@@H](C)[C@@H]([C@@H](C)OC(=O)OCCO)OC1=O)[C@@H]3[C@H](O)[C@@H](C)[C@H]4OC(=O)c1ccc[nH]1 [Example 30]	0.5 µg/mL	< 0.00994 µM	64 µg/mL (≈ 106 µM)	116 µM	16 µg/mL (≈ 26.5 µM)	1 µg/mL (≈ 1.66 µM)	–	–
CO[C@H]1C[C@H]2C=CC3C4[C@H](O)[C@@H](C)[C@@H](OC(=O)c5ccc[nH]5)[C@@H]3O[C@]42/C(C)=C/[C@@H](C)[C@@H]([C@@H](C)OC(=O)C(=O)OCc2cncn2C)OC1=O.O=C(O)C(F)(F)F [Example 207]	4 µg/mL	< 0.00754 µM	> 64 µg/mL	3.27 µM	64 µg/mL	4 µg/mL	–	–
CO[C@H]1C[C@H]2C=C[C@H]3[C@H]4O[C@]2(/C(C)=C/[C@@H](C)[C@@H]([C@@H](C)O)OC1=O)[C@@H]3[C@H](O)[C@@H](C)[C@H]4OC(=O)c1ccc(Br)[nH]1 [Example 43]	64 µg/mL	0.202 µM	128 µg/mL (≈ 215 µM)	75.7 µM	> 128 µg/mL	8 µg/mL (≈ 13.5 µM)	–	–
CO[C@H]1C[C@H]2C=C[C@H]3[C@H]4O[C@]2(/C(C)=C/[C@@H](C)[C@@H]([C@@H](C)OC(=O)N2CCOCC2)OC1=O)[C@@H]3[C@H](O)[C@@H](C)[C@H]4OC(=O)c1ccc[nH]1 [Example 20]	8 µg/mL	< 0.00954 µM	32 µg/mL (≈ 50.9 µM)	> 159 µM	> 128 µg/mL	8 µg/mL (≈ 12.7 µM)	–	–
CO[C@H]1C[C@H]2C=C[C@H]3[C@H]4O[C@]2(/C(C)=C/[C@@H](C)[C@@H](c2ccccc2)OC1=O)[C@@H]3[C@H](O)[C@@H](C)[C@H]4OC(=O)c1ccc[nH]1 [Example 51]	0.25 µg/mL	< 0.011 µM	> 128 µg/mL	14.6 µM	> 128 µg/mL	> 128 µg/mL	–	–
COC(=O)O[C@H](C)[C@H]1OC(=O)[C@@H](OC)CC2C=C[C@H]3[C@H]4O[C@]2(/C(C)=C/[C@H]1C)[C@@H]3[C@H](O)[C@@H](C)[C@H]4OC(=O)c1ccc[nH]1 (stereo partly drawn) [Example 27]	2 µg/mL	< 0.0105 µM	64 µg/mL (≈ 112 µM)	61 µM	> 128 µg/mL	4 µg/mL (≈ 6.97 µM)	–	–
CO[C@H]1C[C@H]2C=C[C@H]3[C@H]4O[C@]2(/C(C)=C/[C@@H](C)[C@@H]([C@@H](C)O)OC1=O)[C@@H]3[C@H](OC(N)=O)[C@@H](C)[C@H]4O [Example 187]	> 128 µg/mL	0.387 µM	> 128 µg/mL	> 215 µM	32 µg/mL (≈ 68.7 µM)	16 µg/mL (≈ 34.4 µM)	–	–
COC1CC2C=CC3C4OC2(C(C)=CC(C)C(C(C)OC(=O)NCCN2CCN(C)CC2)OC1=O)C3C(O)C(C)C4OC(=O)c1ccc[nH]1 (stereo not drawn) [Example 24]	32 µg/mL	–	> 128 µg/mL	–	> 128 µg/mL	32 µg/mL (≈ 46.7 µM)	> 146 µM	0.00876 µM
CO[C@H]1CC2C=C[C@H]3[C@H]4O[C@]2(/C(C)=C/[C@@H](C)[C@@H](C(C)O)OC1=O)[C@@H]3[C@H](O)[C@@H](C)[C@H]4OC(=O)c1[nH]c(I)c(I)c1I (stereo partly drawn) [Example 42]	32 µg/mL	4.48 µM	1 µg/mL (≈ 1.12 µM)	44.8 µM	> 128 µg/mL	> 128 µg/mL	–	–
CO[C@H]1C[C@H]2C=CC3C4[C@H](O)[C@@H](C)[C@@H](OC(=O)c5ccc[nH]5)[C@@H]3O[C@]42/C(C)=C/[C@@H](C)[C@@H]([C@@H](C)OC(=O)C(=O)NCc2ccccc2)OC1=O [Example 114, (3R,4S,7S,8aS,11R,12R,13R,14R,14bS,E)-4-((R)-1-(2-(benzylamino)-2-oxoacetoxy)ethyl)-14-hydroxy-7-methoxy-1,3,13-trimethyl-6-oxo-3,4,6,7,8,8a,10a,11,12,13,14,14a-dodecahydro-11,14b-epoxynaphtho[2,1-e]oxecin-12-yl 1H-pyrrole-2-carboxylate]	< 0.125 µg/mL	< 0.00887 µM	> 128 µg/mL	–	8 µg/mL (≈ 11.8 µM)	0.25 µg/mL (≈ 0.369 µM)	16.3 µM	–
